Patent US10913738B2 (BRISTOL-MYERS SQUIBB COMPANY, priority 2017, dated 2021)
Read-outs that look alike come from different tables or passages of the source.

Experiments:
[1] = system: MLKL phosphorylation in HT29-L23 human colorectal adenocarcinoma cells; test: MLKL Phosphorylation High-Content Assay; assay type: cell-based; conditions: Homo sapiens
How it was run: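 IC50 and Ymax obtained by 4-parameter logistic fitting of MLKL phosphorylation, measured as mean circ-ring average intensity ratio from high-content images. Staining used an anti-phospho-S358 MLKL antibody overnight at 4° C., following six-hour cell incubation at 37° C.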

[2] = target: T1, His-GST-TVMV-hRIPK1(1-324) (Homo sapiens, UniProt Q13546); test: RIPK1 HTRF Binding Assay
T1 construct: The coding region of human RIPK1(1-324) flanked by NdeI site at 5′ end; made in house; host or cells: Spodoptera frugiperda (Sf9) insect cells, baculovirus
T1 sequence (Q13546 1-324): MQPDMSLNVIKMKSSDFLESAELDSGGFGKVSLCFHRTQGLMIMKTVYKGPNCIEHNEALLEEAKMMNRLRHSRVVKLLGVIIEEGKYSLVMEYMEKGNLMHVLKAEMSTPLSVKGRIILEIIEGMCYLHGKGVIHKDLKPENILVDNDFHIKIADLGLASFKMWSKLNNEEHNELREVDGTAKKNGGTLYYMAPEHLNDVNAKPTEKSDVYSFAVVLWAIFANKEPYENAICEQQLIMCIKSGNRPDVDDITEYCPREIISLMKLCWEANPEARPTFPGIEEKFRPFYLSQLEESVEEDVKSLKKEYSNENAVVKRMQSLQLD

[3] = x marks IC50 class 20-200 nM, read-out: pMLKL cell activity 20-200 nM
[4] = x marks IC50 class <20 nM, read-out: RIPK1 HTRF binding <20 nM
[5] = x marks IC50 class <20 nM, read-out: pMLKL cell activity <20 nM
[6] = x marks IC50 class 20-200 nM, read-out: RIPK1 HTRF binding 20-200 nM
[7] = x marks IC50 class >200 nM, read-out: pMLKL cell activity >200 nM

Compound	IC50 [1, 3] [nM]	IC50 [2, 4] [nM]	IC50 [1, 5] [nM]	IC50 [2, 6] [nM]	IC50 [1, 7] [nM]
COc1nc(C)c(-c2ccn3nc(N)nc3c2)cc1C(=O)NCc1ncccc1OCC1CC1 [Example 33, 5-{2-Amino-[1,2,4]triazolo[1,5-a]pyridin-7-yl}-N-{[3-(cyclopropylmethoxy)pyridin-2-yl]methyl}-2-methoxy-6-methylpyridine-3-carboxamide]	20 to 200	< 20	–	–	–
COc1nc(C)c(-c2ccn3nc(N)nc3c2)cc1C(=O)NCc1cccnc1OC1CCCC1 [Example 34, 5-{2-Amino-[1,2,4]triazolo[1,5-a]pyridin-7-yl}-N-{[2-(cyclopentyloxy)pyridin-3-yl]methyl}-2-methoxy-6-methylpyridine-3-carboxamide]	–	< 20	< 20	–	–
Cc1ncc(-c2ccn3nc(N)nc3c2)cc1C(=O)NCc1ccccc1OC(C)C [Example 35, 5-{2-Amino-[1,2,4]triazolo[1,5-a]pyridin-7-yl}-2-methyl-N-{[2-(propan-2-yloxy)phenyl]methyl}pyridine-3-carboxamide]	20 to 200	–	–	20 to 200	–
COc1ncc(-c2ccn3nc(N)nc3c2)cc1C(=O)NCc1ncccc1OCC1CCC1 [Example 37, 5-{2-Amino-[1,2,4]triazolo[1,5-a]pyridin-7-yl}-N-{[3-(cyclobutylmethoxy)pyridin-2-yl]methyl}-2-methoxypyridine-3-carboxamide]	20 to 200	< 20	–	–	–
Cc1ncc(-c2ccn3nc(N)nc3c2)cc1C(=O)NCc1ccccc1OCC1CCCC1 [Example 39, 5-{2-Amino-[1,2,4]triazolo[1,5-a]pyridin-7-yl}-N-{[2-(cyclopentylmethoxy)phenyl]methyl}-2-methylpyridine-3-carboxamide]	20 to 200	< 20	–	–	–
Nc1nc2cc(-c3cncc(C(=O)NCc4c(F)cccc4OC4CCCC4)c3)ccn2n1 [Example 40, 5-{2-Amino-[1,2,4]triazolo[1,5-a]pyridin-7-yl}-N-{[2-(cyclopentyloxy)-6-fluorophenyl]methyl}pyridine-3-carboxamide]	20 to 200	< 20	–	–	–
Nc1nc2cc(-c3cncc(C(=O)NCc4cc(F)ccc4OC4CCCC4)c3)ccn2n1 [Example 41, 5-{2-Amino-[1,2,4]triazolo[1,5-a]pyridin-7-yl}-N-{[2-(cyclopentyloxy)-5-fluorophenyl]methyl}pyridine-3-carboxamide]	20 to 200	< 20	–	–	–
Nc1nc2cc(-c3cncc(C(=O)NCc4ccccc4OCC4CC4)c3)ccn2n1 [Example 42, 5-{2-Amino-[1,2,4]triazolo[1,5-a]pyridin-7-yl}-N-{[2-(cyclopropylmethoxy)phenyl]methyl}pyridine-3-carboxamide]	–	< 20	< 20	–	–
Nc1nc2cc(-c3cncc(C(=O)NCc4ccccc4OC4CCCC4)c3)ccn2n1 [Example 43, 5-{2-Amino-[1,2,4]triazolo[1,5-a]pyridin-7-yl}-N-{[2-(cyclopentyloxy)phenyl]methyl}pyridine-3-carboxamide]	20 to 200	< 20	–	–	–
COc1ncc(-c2ccn3nc(N)nc3c2)cc1C(=O)NCc1ccccc1OC1CCCCC1 [Example 44, 5-{2-Amino-[1,2,4]triazolo[1,5-a]pyridin-7-yl}-N-{[2-(cyclohexyloxy)phenyl]methyl}-2-methoxypyridine-3-carboxamide]	20 to 200	< 20	–	–	–
COc1ncc(-c2ccn3nc(N)nc3c2)cc1C(=O)NCc1cccc(OC2CCCC2)c1 [Example 45, 5-{2-Amino-[1,2,4]triazolo[1,5-a]pyridin-7-yl}-N-{[3-(cyclopentyloxy)phenyl]methyl}-2-methoxypyridine-3-carboxamide]	–	–	–	20 to 200	> 200
COc1ncc(-c2ccn3nc(N)nc3c2)cc1C(=O)NCc1cccc(OCC2CCC2)c1 [Example 46, 5-{2-Amino-[1,2,4]triazolo[1,5-a]pyridin-7-yl}-N-{[3-(cyclobutylmethoxy)phenyl]methyl}-2-methoxypyridine-3-carboxamide]	–	–	–	20 to 200	> 200
COc1ncc(-c2ccn3nc(N)nc3c2)cc1C(=O)NCc1cccc(OCC2CC2)c1 [Example 47, 5-{2-Amino-[1,2,4]triazolo[1,5-a]pyridin-7-yl}-N-{[3-(cyclopropylmethoxy)phenyl]methyl}-2-methoxypyridine-3-carboxamide]	–	–	–	20 to 200	> 200
Nc1nc2cc(-c3cnc(N)c(C(=O)NCc4c(F)cccc4OC4CCCC4)c3)ccn2n1 [Example 48, 2-Amino-5-{2-amino-[1,2,4]triazolo[1,5-a]pyridin-7-yl}-N-{[2-(cyclopentyloxy)-6-fluorophenyl]methyl}pyridine-3-carboxamide]	–	< 20	< 20	–	–
Nc1nc2cc(-c3cnc(N)c(C(=O)NCc4ccccc4OCC4CCC4)c3)ccn2n1 [Example 49, 2-Amino-5-{2-amino-[1,2,4]triazolo[1,5-a]pyridin-7-yl}-N-{[2-(cyclobutylmethoxy)phenyl]methyl}pyridine-3-carboxamide]	20 to 200	< 20	–	–	–
COc1ncc(-c2ccn3nc(N)nc3c2)cc1C(=O)NCc1cccc(F)c1OC1CCCC1 [Example 50, 5-{2-Amino-[1,2,4]triazolo[1,5-a]pyridin-7-yl}-N-{[2-(cyclopentyloxy)-3-fluorophenyl]methyl}-2-methoxypyridine-3-carboxamide]	20 to 200	< 20	–	–	–
COc1ncc(-c2ccn3nc(N)nc3c2)cc1C(=O)NCc1ccc(F)cc1OC1CCCC1 [Example 51, 5-{2-Amino-[1,2,4]triazolo[1,5-a]pyridin-7-yl}-N-{[2-(cyclopentyloxy)-4-fluorophenyl]methyl}-2-methoxypyridine-3-carboxamide]	20 to 200	< 20	–	–	–
COc1ncc(-c2ccn3nc(N)nc3c2)cc1C(=O)NCc1c(F)cccc1OC1CCCC1 [Example 52, 5-{2-Amino-[1,2,4]triazolo[1,5-a]pyridin-7-yl}-N-{[2-(cyclopentyloxy)-6-fluorophenyl]methyl}-2-methoxypyridine-3-carboxamide]	–	< 20	< 20	–	–
Nc1nc2cc(-c3cnc(N)c(C(=O)NCc4c(F)cccc4OCC4CC4)c3)ccn2n1 [Example 53, 2-Amino-5-{2-amino-[1,2,4]triazolo[1,5-a]pyridin-7-yl}-N-{[2-(cyclopropylmethoxy)-6-fluorophenyl]methyl}pyridine-3-carboxamide]	20 to 200	< 20	–	–	–
Nc1nc2cc(-c3cnc(N)c(C(=O)NCc4ccccc4OC4CCCC4)c3)ccn2n1 [Example 54, 2-Amino-5-{2-amino-[1,2,4]triazolo[1,5-a]pyridin-7-yl}-N-{[2-(cyclopentyloxy)phenyl]methyl}pyridine-3-carboxamide]	20 to 200	< 20	–	–	–
CC(C)Oc1ccccc1CNC(=O)c1cc(-c2ccn3nc(N)nc3c2)cnc1N [Example 55, 2-Amino-5-{2-amino-[1,2,4]triazolo[1,5-a]pyridin-7-yl}-N-{[2-(propan-2-yloxy)phenyl]methyl}pyridine-3-carboxamide]	20 to 200	< 20	–	–	–
Nc1nc2cc(-c3cnc(N)c(C(=O)NCc4ccccc4OCC4CC4)c3)ccn2n1 [Example 56, 2-Amino-5-{2-amino-[1,2,4]triazolo[1,5-a]pyridin-7-yl}-N-{[2-(cyclopropylmethoxy)phenyl]methyl}pyridine-3-carboxamide]	20 to 200	< 20	–	–	–
CNc1ncc(-c2ccn3nc(N)nc3c2)cc1C(=O)NCc1ccccc1Sc1ccccc1CO [Example 57]	20 to 200	< 20	–	–	–
Nc1nc2cc(-c3cncc(C(=O)NCc4ccccc4Sc4ccccc4CO)c3)ccn2n1 [Example 59, 5-{2-Amino-[1,2,4]triazolo[1,5-a]pyridin-7-yl}-N-{[(2-[2-(hydroxymethyl)phenyl]sulfanyl}phenyl)methyl]pyridine-3-carboxamide]	20 to 200	< 20	–	–	–
Nc1nc2cc(-c3cc(C(=O)NCc4ccccc4Sc4ccccc4CO)c4cc(F)ccc4n3)ccn2n1 [Example 60, 2-{2-Amino-[1,2,4]triazolo[1,5-a]pyridin-7-yl}-6-fluoro-N-[(2-{[2-(hydroxymethyl)phenyl]sulfanyl}phenyl)methyl]quinoline-4-carboxamide]	–	–	–	20 to 200	> 200
CCc1ncc(-c2ccn3nc(N)nc3c2)cc1C(=O)NCc1ccccc1Sc1ccccc1CO [Example 61, 5-{2-Amino-[1,2,4]triazolo[1,5-a]pyridin-7-yl}-2-ethyl-N-[(2-{[2-(hydroxymethyl)phenyl]sulfanyl}phenyl)methyl]pyridine-3-carboxamide]	–	< 20	< 20	–	–
Nc1nc2cc(-c3cnc(N)c(C(=O)NCc4ccccc4Sc4ccccc4CO)c3)ccn2n1 [Example 62, 2-Amino-5-{2-amino-[1,2,4]triazolo[1,5-a]pyridin-7-yl}-N-[(2-{[2-(hydroxymethyl)phenyl]sulfanyl}phenyl)methyl]pyridine-3-carboxamide]	20 to 200	< 20	–	–	–
CCCOc1ncc(-c2ccn3nc(N)nc3c2)cc1C(=O)NCc1ccccc1Sc1ccccc1CO [Example 63]	20 to 200	< 20	–	–	–
